# According to patent publication US9227956B2 (Pfizer Inc., priority 2013, dated 2016):
# pIC50: −log10 of the molar value.
# How the values were obtained:
# [1] = test system: human PCSK9; test: Cell Free PCSK9 Assay (PCSK9-luciferase RNA translated in HeLa cell lysate); format: biochemical; conditions: 30° C. for 45 minutes, luciferase readout, top concentration 100 μM
# Experimental: In order to eliminate the permeability barrier inherent to the WT7 and SCHH cell-based assays a cell-free system was also established to access compound activity. […] The construct was then in-vitro transcribed using the MEGAscript T7 Kit (Life Technologies) and RNA subsequently purified incorporating the MEGAclear Kit (Life Technologies) according to manufacturer's protocols. […] Growth was in a 50 L wavebag at a rocker speed of 25 rpm and angle 6.1 with 5% CO2 and 0.2 LPM flow rate with cells harvested at a density of 2-2.5e6/ml. Lysates additionally contained 1 tablet of Roche cOmplete-EDTA protease inhibitors per 50 ml with tris(2-carboxyethyl)phosphine (Biovectra) substituted for dithiothreitol, and were clarified by an additional final centrifugation at 10,000 rpm in a Sorvall SS34 rotor at 4° C. for 10 minutes. Compound screening was performed in 384-well plates in an eleven point, 0.5 log dilution format at a top test compound concentration of 100 μM in a final volume of 0.5% DMSO. […] Upon assay completion 1 μL from each reaction solution was removed and transferred to a second 384-well Optiplate (Perkin Elmer) containing 24 μL of SteadyGlo (Promega) and signal intensity was measured on the Envision (Perkin Elmer) using the enhanced luminescence protocol. […] The test compound data were converted into percent effect, using the ZPE and HPE controls as 0% and 100% activity, respectively, applying Equation 1 above. IC50 was then calculated and reported as the midpoint in the percent effect curve in molar units and the values are reported under the Cell Free PCSK9 IC50 (μM) column header within Table 1 Biological Data.
# [2] = test system: human PCSK9; test: PCSK9 AlphaLISA assay, PCSK9 lowering in WT7 cells; conditions: WT7 cells (Huh7 stably over-expressing human PCSK9); secreted PCSK9 by AlphaLISA; overnight incubation (16-24 h); top concentration 20 μM; read-out: Cell Based PCSK9 IC50
# Description: An in-vitro AlphaLISA assay (Perkin Elmer) was developed in order to quantitate the level of PCSK9 secreted into the cell culture media following compound treatment. To detect and measure PCSK9 protein an in-house generated anti-PCSK9 antibody was coupled to AlphaLISA acceptor beads by an external vendor (PerkinElmer) and a second internally developed anti-PCSK9 antibody with an epiptope distinct from that of the acceptor beads was biotinylated in house. Streptavidin coated-donor beads (Perkin Elmer) are also included in the assay mixture which then binds the biotinylated anti-PCSK9 antibody and in the presence of PCSK9 this donor complex and acceptor beads are brought into close proximity. […] The ability of compound to modulate PCSK9 protein levels in conditioned media by AlphaLISA was assessed in the human hepatocellular carcinoma cell line Huh7, stably over-expressing human PCSK9. […] Following plasmid transfection the stable WT7 clone was identified and maintained under Zeocin selection. Compound screening was performed in 384-well plates where WT7 cells were plated at a density of 7500 cells per well in 20 μL of tissue culture media containing compound in an eleven point, 0.5 log dilution format at a high treatment concentration of 20 μM in a final volume of 0.5% DMSO. In additional to these test compound conditions each screening plate also included wells that contained 20 μM puromycin as a positive assay control defined as high percent effect, HPE, as well as wells containing media in 0.5% DMSO as a negative treatment control defined as zero percent effect, ZPE. After overnight compound incubation (16-24 h) the tissue culture media was collected and an aliquot from each sample was transferred to individual wells of a 384-well white Optiplate (Perkin Elmer). The coupled antibodies and donor beads were added to the assay plates in a buffer composed of 30 mM Tris pH 7.4, 0.02% Tween-20 and 0.02% Casein. Anti-PCSK9 acceptor beads (final concentration of 10 μg/mL) and anti-PCSK9 biotinylated antibody (final concentration of 3 nM) were added and incubated for 30 minutes at room temperature followed by the addition of the streptavidin donor beads (final concentration 40 μg/mL) for an additional 60 minutes. Additionally a standard curve was generated where AlphaLISA reagents were incubated in wells spiked with recombinant human PCSK9 diluted in tissue culture media from 5000 ng/mL to 0.6 ng/mL. […] The test compound data were converted into percent effect, using the ZPE and HPE controls as 0% and 100% activity, respectively. The equation used for converting each well reading into percent effect was:
# [formula] IC50 was then calculated and reported as the midpoint in the percent effect curve in molar units and the values are reported under the Cell Based PCSK9 IC50 (μM) column header within Table 1 Biological Data. Additionally, to monitor the selectivity of compound response for PCSK9 the level of a second secreted protein, Transferrin, was measured from the same conditioned media treated with test compound by AlphaLISA. […] To detect and quantify effects on Transferrin 0.01 mL of the culture media was transferred to a 384-well white Optiplate and 0.01 mL of media was added to bring the volume to 0.02 ml. Anti-Transferrin acceptor beads were added to a final concentration of 10 μg/mL, biotinylated anti-Transferrin at 3 nM and streptavidin donor beads at 40 μg/mL. Percent effect and IC50 for Transferrin was computed in a similar manner as that described for PCSK9.
# [3] = test system: PCSK9; test: PCSK9 lowering in sandwich culture human hepatocytes (SCHH); format: cell-based; conditions: maximum response versus vehicle
# Experimental: Test compound in-vitro pharmacokinetic and pharmacodynamic relationships were measured in sandwich culture primary cryopreserved human hepatocytes. Within these studies SCHH cells (BD Biosciences IVT) were thawed at 37° C. then placed on ice, after which the cells were added to pre-warmed (37° C.) In VitroGRO-HT media and centrifuged at 50×g for 3 min. The cell pellet was re-suspended to 0.8×10^6 cells/mL in InVitroGRO-CP plating medium and cell viability determined by trypan blue exclusion. On day 1, hepatocyte suspensions were plated in BioCoat 96-well plates at a density of 80000 cells/well in a volume of 0.1 mL/well. After 18 to 24 hours of incubation at 37° C. in 5% CO2, cells were overlaid with ice-cold 0.25 mg/mL BD Matrigel Matrix Phenol Red-Free in incubation medium at 0.1 mL/well. Cultures were maintained at 37° C. in 5% CO2 in InVitroGRO-HI (FBS-free media), which was replaced every 24 hours and time course treatments were initiated on day 5. Prior to compound treatment cell plates were washed 3 times with 0.1 mL/well InVitroGRO-HI and 0.09 mL of media was added back in preparation for the compound additions. 1 uL of either DMSO or compound DMSO stocks at 30 mM, 10 mM, 3 mM and 1 mM were stamped into 96 well V bottom polypropylene plates. 0.099 mL of media was added to the compound plate and mixed thoroughly before the addition of 0.010 mL from the interim compound plate to the cell plate. […] At the indicated time, 0.08 mL of media was removed from the cell plates and frozen for subsequent analysis of secreted PCSK9 by AlphaLISA and for determination of drug levels in the media by liquid chromatography-tandem mass spectrometry (LC-MS/MS). The remaining media was then aspirated and the cell layers were washed 3× with ice cold Hanks Balanced Salt Solution (HBSS) under shaking conditions to remove the matrigel overlay and plates were then stored at −20° C. for subsequent determination of drug levels in the cells by LC-MS/MS. AlphaLISA determination of PCSK9 protein levels within the conditioned media was performed ultilizing the identical reagents and detection protocols described above for the WT7 cells.
Structure (SMILES),pIC50 [1],pIC50 [2],Sandwich Culture Hepatocyte (SCHH) PCSK9 Lowering ([3]; at 6 h at 30 uM) [% at 6 h at 30 uM],Sandwich Culture Hepatocyte (SCHH) PCSK9 Lowering ([3]; at 8 h at 30 μM) [% at 8 h at 30 μM]
"CCOC(=O)OC(CC)n1nnc(-c2c(-c3ccc(C(=O)N(c4ncccc4C)[C@@H]4CCCNC4)cc3)cnn2C)n1 (single isomer, unassigned) [Example 32]",5.14,< 4.70,0,–
"CCOC(=O)OC(CC)n1nnc(-c2c(-c3ccc(C(=O)N(c4ncccc4C)[C@@H]4CCCNC4)cc3)cnn2C)n1 (single isomer, unassigned) [Example 33]",4.63,< 4.70,32,–
"CCOC(=O)OC(C(C)C)n1nnc(-c2c(-c3ccc(C(=O)N(c4ncccc4C)[C@@H]4CCCNC4)cc3)cnn2C)n1 (single isomer, unassigned) [Example 34]",5.28,< 4.70,20,–
"CCOC(=O)OC(C(C)C)n1nnc(-c2c(-c3ccc(C(=O)N(c4ncccc4C)[C@@H]4CCCNC4)cc3)cnn2C)n1 (single isomer, unassigned) [Example 35]",5.21,< 4.70,28,–
"CCOC(=O)OC(n1nnc(-c2c(-c3ccc(C(=O)N(c4ncccc4C)[C@@H]4CCCNC4)cc3)cnn2C)n1)C(C)(C)C (single isomer, unassigned) [Example 36]",5.27,< 4.70,27,–
"CCOC(=O)OC(n1nnc(-c2c(-c3ccc(C(=O)N(c4ncccc4C)[C@@H]4CCCNC4)cc3)cnn2C)n1)C(C)(C)C (single isomer, unassigned) [Example 37]",4.64,< 4.70,25,–
"Cc1cccnc1N(C(=O)c1ccc(-c2cnn(C)c2-c2nnn(C(C)OC(=O)OC(C)C)n2)cc1)[C@@H]1CCCNC1 (single isomer, unassigned) [Example 38]",5.66,–,3,–
"Cc1cccnc1N(C(=O)c1ccc(-c2cnn(C)c2-c2nnn(C(C)OC(=O)OC(C)C)n2)cc1)[C@@H]1CCCNC1 (single isomer, unassigned) [Example 39]",6.23,–,0,–
"CCC(OC(=O)OC(C)C)n1nnc(-c2c(-c3ccc(C(=O)N(c4ncccc4C)[C@@H]4CCCNC4)cc3)cnn2C)n1 (single isomer, unassigned) [Example 40]",4.74,< 4.70,26,–
"CCC(OC(=O)OC(C)C)n1nnc(-c2c(-c3ccc(C(=O)N(c4ncccc4C)[C@@H]4CCCNC4)cc3)cnn2C)n1 (single isomer, unassigned) [Example 41]",4.81,< 4.71,35,–
"Cc1cccnc1N(C(=O)c1ccc(-c2cnn(C)c2-c2nnn(C(OC(=O)OC(C)C)C(C)C)n2)cc1)[C@@H]1CCCNC1 (single isomer, unassigned) [Example 42]",5.13,< 4.70,19,–
"Cc1cccnc1N(C(=O)c1ccc(-c2cnn(C)c2-c2nnn(C(OC(=O)OC(C)C)C(C)C)n2)cc1)[C@@H]1CCCNC1 (single isomer, unassigned) [Example 43]",4.50,< 4.70,21,–
"CCC(=O)OC(C)n1nnc(-c2c(-c3ccc(C(=O)N(c4ncccc4C)[C@@H]4CCCNC4)cc3)cnn2C)n1 (single isomer, unassigned) [Example 44]",5.36,< 4.70,12,–
"CCC(=O)OC(C)n1nnc(-c2c(-c3ccc(C(=O)N(c4ncccc4C)[C@@H]4CCCNC4)cc3)cnn2C)n1 (single isomer, unassigned) [Example 45]",4.60,< 4.70,8,–
"CCC(=O)OC(C(C)C)n1nnc(-c2c(-c3ccc(C(=O)N(c4ncccc4C)[C@@H]4CCCNC4)cc3)cnn2C)n1 (single isomer, unassigned) [Example 48]",5.11,< 4.70,16,–
"CCC(=O)OC(C(C)C)n1nnc(-c2c(-c3ccc(C(=O)N(c4ncccc4C)[C@@H]4CCCNC4)cc3)cnn2C)n1 (single isomer, unassigned) [Example 49]",4.81,< 4.70,0,–
"Cc1cccnc1N(C(=O)c1ccc(-c2cnn(C)c2-c2nnn(C(C)OC(=O)C(C)C)n2)cc1)[C@@H]1CCCNC1 (single isomer, unassigned) [Example 50]",5.10,< 4.70,37,–
"CCOC(=O)c1c(-c2ccc(C(=O)N(c3ncccc3Cl)[C@@H]3CCCNC3)cc2)cnn1C [Example 6, ethyl 4-(4-{(3-chloropyridin-2-yl)[(3R)-piperidin-3-yl]carbamoyl}phenyl)-1-methyl-1H-pyrazole-5-carboxylate]",5.77,–,–,80
